Tests used:
[1] = target: T1, CDK1/CycB (Homo sapiens, UniProt P06493); assay: CDK1/CycB kinase assay (33P-ATP incorporation into histone IIIS, filter strip scintillation); format: biochemical; details: recombinant CDK1- and CycB-GST fusion proteins; 0,5 µM ATP; 10 min at 22°C; substrate Histon IIIS; read-out: CDK1/CycB (Assay 1) Konzentration der halbmaximalen Inhibition der Enzymaktivität, IC50
T1 construct: GST; purchased ProQinase GmbH, Freiburg; host or cells: baculovirus-infected Sf9 insect cells
T1 sequence (P06493 whole entry, the tested form may be a part): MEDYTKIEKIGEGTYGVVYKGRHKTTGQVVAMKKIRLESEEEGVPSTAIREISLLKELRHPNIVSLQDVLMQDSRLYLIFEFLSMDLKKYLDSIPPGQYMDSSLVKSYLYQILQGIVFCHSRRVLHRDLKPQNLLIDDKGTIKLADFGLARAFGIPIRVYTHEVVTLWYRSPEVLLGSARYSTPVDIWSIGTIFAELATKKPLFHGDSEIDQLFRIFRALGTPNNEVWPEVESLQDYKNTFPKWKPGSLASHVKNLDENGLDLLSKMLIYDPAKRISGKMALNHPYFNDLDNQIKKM
T1 sequence (P14635 whole entry partner, the tested form may be a part): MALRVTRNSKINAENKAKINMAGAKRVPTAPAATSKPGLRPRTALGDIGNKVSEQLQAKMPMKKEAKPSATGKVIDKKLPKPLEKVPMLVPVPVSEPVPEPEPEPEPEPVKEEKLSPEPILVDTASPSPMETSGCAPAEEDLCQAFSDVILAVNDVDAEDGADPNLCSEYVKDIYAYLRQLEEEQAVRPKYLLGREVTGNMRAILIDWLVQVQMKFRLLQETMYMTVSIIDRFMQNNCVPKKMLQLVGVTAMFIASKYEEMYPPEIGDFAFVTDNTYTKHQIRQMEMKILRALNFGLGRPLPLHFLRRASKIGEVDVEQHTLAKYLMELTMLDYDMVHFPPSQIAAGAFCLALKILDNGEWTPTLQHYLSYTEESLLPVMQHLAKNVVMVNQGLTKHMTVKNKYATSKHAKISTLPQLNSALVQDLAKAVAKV
Description: Assay 1: CDK1/CycB Kinase Assay
Rekombinante CDK1- und CycB-GST-Fusionsproteine, gereinigt aus Bakulovirusinfizierten Insektenzellen (Sf9), wurden von ProQinase GmbH, Freiburg, gekauft. Das als Kinase-Substrat verwendet Histon IIIS ist über die Fa. Sigma käuflich zu erwerben.
(§1) CDK1/CycB (200 ng/Messpunkt) wurde für 10 min bei 22°C in Anwesenheit verschiedener Konzentrationen an Testsubstanzen (0 µM, sowie innerhalb des Bereiches 0,001 - 10 µM) in Assaypuffer [50 mM Tris/HCl pH8,0; 10 mM MgCl2; 0,1 mM Na ortho-Vanadat; 1,0 mM Dithiothreitol; 0,5 µM Adenosintrisphosphat (ATP); 10 µg/Messpunkt Histon IIIS; 0,2 µCi/Messpunkt ^33P-gamma ATP; 0,05% NP40; 1,25% Dimethylsulfoxid] inkubiert. Die Reaktion wurde durch Zugabe von EDTA-Lösung (250 mM; pH8,0; 15 µl/Messpunkt) gestoppt.
(§2) Von jedem Reaktionsansatz wurden 15 µl auf P30 Filterstreifen (Fa. Wallac) aufgetragen, und nicht-eingebautes ^33P-ATP wurde durch dreimaliges Waschen der Filterstreifen für je 10 min in 0,5%iger Phosphorsäure entfernt. Nach dem Trocknen der Filterstreifen für 1 Stunde bei 70°C wurden die Filterstreifen mit Szintillator-Streifen (MeltiLex™ A, Fa. Wallac) bedeckt und für 1 Stunde bei 90°C eingebrannt. Die Menge an eingebautem ^33P (Substratphosphorylierung) wurde durch Szintillationsmessung in einem Gamma-Strahlungsmessgerät (Wallac) bestimmt. […]

[2] = target: T2, CDK2/CycE (Homo sapiens, UniProt P24941); assay: CDK2/CycE kinase assay (33P-ATP incorporation into histone IIIS, filter strip scintillation); format: biochemical; details: recombinant CDK2- and CycE-GST fusion proteins; 0,5 µM ATP; 10 min at 22°C; substrate Histon IIIS; read-out: CDK2/CycE (Assay 2) Konzentration der halbmaximalen Inhibition der Enzymaktivität, IC50
T2 construct: GST; purchased ProQinase GmbH, Freiburg; host or cells: baculovirus-infected Sf9 insect cells
Description: Assay 2: CDK2/CycE Kinase Assay
Rekombinante CDK2- und CycE-GST-Fusionsproteine, gereinigt aus Bakulovirusinfizierten Insektenzellen (Sf9), wurden von ProQinase GmbH, Freiburg, gekauft. Histon IIIS, das als Kinase-Substrat verwendet wurde, wurde bei der Fa. Sigma gekauft.
as §1, with “CDK2/CycE (50” for “CDK1/CycB (200”
as §2, with “(MeItiLex™” for “(MeltiLex™”

SMILES | IC50 [1] [nM] | IC50 [2] [nM]
C[C@@H](O)[C@@H](C)Oc1nc(Nc2ccc([S+](C)[O-])cc2)ncc1C(F)(F)F (stereo partly drawn) [Beispiel 1, (2R,3R)-3-[2-(4-Methansulfinyl-phenylamino)-5-trifluormethyl-pyrimidin-4-yloxy]-butan-2-ol] | 7 | 5
C[C@@H](Oc1nc(Nc2ccc([S+](C)[O-])cc2)ncc1C(F)(F)F)C(C)(C)O (stereo partly drawn) [Beispiel 2, (R)-3-[2-(4-Methansulfinyl-phenylamino)-5-trifluormethyl-pyrimidin-4-yloxy]-2-methyl-butan-2-ol] | 30 | 12

— EP2179993A1, “Sulfoxide substituted aniline pyrimidine derivatives as CDK inhibitors, their manufacture and use as medicine” (Bayer Schering Pharma Aktiengesellschaft, priority 2008, dated 2010)
